Data from patent US10697970B2, “S100A9 levels for predicting lenalidomide and erythropoietin responsiveness” (H. LEE MOFFITT CANCER CENTER AND RESEARCH INSTITUTE, INC., priority 2015, dated 2020).

Assays:
HepG2 cells [1] = test: Epo elaboration by HepG2 cells (ELISA); type: cell-based, human
Protocol: HepG2 cells, acquired from American Type Culture Collection (ATCC, Manassas, Va.), were grown in EMEM supplemented with 10% FBS and 1% penicillin/streptomycin solution. Cells were maintained at 37° C. under 5% CO2.
(§1) Quantitation of human S100A9/MRP14 in patient serum and supernatant of the HepG2 cell line was performed using CircuLex S100A9/MRP14 ELISA Kit (MBL, Nagano, Japan). Quantitative measurement of human TNFα and IL-1β from serum patients and supernatant of HepG2 cell line were performed using Human IL-1β ELISA Kit and Human TNFα ELISA Kit (Life Technologies, Carlsbad, Calif., USA). Quantitation of human Epo in patient serum and HepG2 cell line supernatant was performed using Human Erythropoietin ELISA kit (Stemcell Technologies, Vancouver, BC, Canada). All samples were performed in duplicate.

HepG2 cells [2] = test: IL10 mRNA qPCR in HepG2 cells; type: cell-based, human
Protocol: RNA was isolated using the RNAeasy Mini Kit (Qiagen, Valencia, Calif., USA) followed by iScript cDNA synthesis (Bio-Rad, Hercules, Calif., USA) and amplification using iQ SYBR Green Supermix (Bio-Rad, Herculed, Calif., USA). The relative level of gene expression for each experimental sample was calculated by the ΔΔCt method. Untreated cells were the experimental control and the housekeeping gene GAPDH was the endogenous control.

NF-κB = test: Cytoplasmic and nuclear NF-κB western blotting in HepG2 cells; type: cell-based, human; settings: HepG2, 24 h, 1 μM lenalidomide pre-incubation, then S100A9 or TNFα
Protocol: After treatment for 24 h, cells were harvested and lysed in 1×RIPA buffer supplemented with protease and phosphatase inhibitors for classical western blotting. For the nuclear extraction, cells were lysed in ice with buffer A, then pelleted. After removed supernatant (cytoplasmic fraction), pellets were lysed in ice with buffer B and pelleted (nuclear fraction) (Nuclear extraction kit, Abcam, Cambridge, USA). Lysates were pelleted and 50 μg of protein was resolved by SDS-PAGE and transferred to PVDF membranes. The membranes were blocked for 30 min in 5% non-fat dry milk solution in PBST (PBS with 0.1% Tween 20) and incubated with the indicated antibodies. Membranes were developed using ECL according to the manufacturer's protocol (GE Healthcare, Little Chalfont, UK). Densitometry analysis was performed using Image J Software.

[3] = system: PBMC isolated from non-del(5q) MDS patients; test: S100A9 production by PBMC from MDS patients (ELISA); type: cell-based, human; settings: PBMC from MDS patients (n=7), 1 μM lenalidomide, 24 hours
Protocol: as §1
(§2) Serum samples used for ELISA analysis were collected from 4 centers (Taussig Cancer Institute in Cleveland; AOU Careggi, University of Firenze; Saint Louis hospital in Paris; H. Lee Moffitt Cancer Center in Tampa). Peripheral blood mononuclear cells (PBMC) were collected from patients seen at Moffitt Cancer Center All patients were consented on Institutional Review Boards, or equivalent, approved protocols in hematology clinics at each center, and from the Eastern Cooperative Oncology Group (ECOG) E2905 trial (NCT00843882). All routine clinical and biological data were available.

MDS PBMC = test: LPS-induced TNFα production by MDS PBMC; type: cell-based, human; settings: MDS PBMC (n=7), 1 μM lenalidomide 30 minutes prior to LPS (1 μg/ml), 24 h
non-del(5q) MDS patients = test: Erythroid response to ESA or lenalidomide treatment by serum TNFα / S100A9 concentration; type: in vivo, human
Source text: as §2
Data are expressed as mean±standard error for continuous variables, or percentage of total for non-continuous variables. Spearman's correlation, Mann-Withney and Jonckheere-Terpstra tests were used for analysis of continuous variables. Chi-square test was used for analysis of non-continuous variables. Differences between the results of comparative tests were considered significant if the two-sided p-value was less than 0.05. All statistical analyses were performed using SPSS v.22 software (IBM SPSS Statistics).

MDS patients = settings: cited from earlier work
U937 cells [4] = test: Pyroptosis / active caspase-1 flow cytometry in U937 cells treated with rhS100A9; type: cell-based
Protocol: Monocytic U937 cells were treated with the indicated concentrations of rhS100A9 for 24 hours, or with 5 μg/mL rhS100A9 for the indicated time points. Subsequently, cells were stained with 30×FAM-FLICA® Caspase-1 solution at a ratio of 1:30 for 2 hours at 37° C. Cells were washed, resuspended in 1× binding buffer, and stained with Annexin-V:PE at a dilution of 1:30 for 15 minutes at room temperature. 1× binding buffer was added to a final volume of 350 μL. Sample acquisitions were carried out using a BD FACSCalibur flow cytometer (BD Biosciences). Data were analyzed using FlowJo 9.7.5 software.

U937 cells [5] = test: a-caspase-1/NLRP3 confocal microscopy (inflammasome formation) in U937 cells; type: cell-based; settings: U937, 5 μg/mL rhS100A9, 24 hours
normal BM-MNC [6] = test: qPCR of pyroptosis-associated genes in normal BM-MNC treated with rhS100A9; type: cell-based, human; settings: normal BM-MNC (n=2), 1 μg/mL rhS100A9, 24 hours
Protocol: RNA was isolated from BM-MNC using the RNeasy Mini Kit (Qiagen). cDNA was produced using the iScript cDNA Synthesis Kit (Bio-Rad). Sequences for primers can be found in Table 1. GAPDH mRNA was used for transcript normalization. cDNA was amplified using the iQ SYBR Green Supermix and the CFX96 Real-Time PCR Detection System (Bio-Rad). PCR conditions were as follows: 10 minutes at 95° C., followed by 40 cycles of amplification (15 seconds at 95° C. and 1 minute at 60° C.). Relative gene expression was calculated using the […] method.

normal BM-MNC [7] = test: a-caspase-1/NLRP3 confocal microscopy in normal BM-MNC treated with rhS100A9; type: cell-based, human; settings: 5 μg/mL rhS100A9, 24 hours
Protocol: (§3) MDS and normal donor BM-MNC and mouse BM cells were stained with 30×FAM-FLICA® Caspase-1 solution at a ratio of 1:30 for 2 hours at 37° C. Cells were washed and cytospins were generated using a 5 minutes centrifugation at 450 rpm. Slides were fixed at 37° C. for 10 minutes using BD Cytofix Fixation Buffer (BD Biosciences), and subsequently washed using PBS. Cells were permeabilized with 0.1% Triton X-100/2% BSA in PBS for 15 minutes at room temperature. After washing with PBS, cells were blocked using 2% BSA in PBS for 30 minutes at room temperature, and washed again. Cells were incubated with the appropriate primary antibody overnight (1:400 for NLRP3, 1:20 for β-catenin) at 4° C. The next day, cells were washed with PBS and incubated with the appropriate secondary antibodies (1:500) for 1 hour at room temperature. After washing, cells were covered with ProLong Gold Antifade Reagent with DAPI prior to the addition of a coverslip (Life Technologies). Co-localization of a-caspase-1 with NLRP3 inflammasome complexes was assessed using a Leica TCS SP5 AOBS Laser Scanning Confocal microscope (Leica Microsystems). Analysis of the inflammasome images was performed with Definiens Developer 2.0 (Definiens AG). The software was used to segment cells based on brightness and size thresholds, followed by a watershed segmentation algorithm. Intensity values and Pearson's correlation coefficient were extracted from the segmented cells. For β-catenin image analysis, confocal images were imported into Definiens Tissue Studio v3.0, 64 Dual in .tif format. Cells were separated from background using the RGB thresholds. Nuclei were identified by setting thresholds in the DAPI channel. Typical cells averaged 60 microns. The red intensity (β-catenin) in the nucleus and cytoplasm was established by setting thresholds to low, medium and high in the red channel on a scale of 0-255 in the red channel.

U937 cells [8] = test: Pore formation assay (ethidium bromide uptake) in U937 cells; type: cell-based; settings: U937, 12.5 μg/mL EB, 5 μg/mL rhS100A9
[9] = system: BM cells isolated from WT mice; test: a-caspase-1/NLRP3 confocal microscopy in WT mouse BM cells treated with rhS100A9; type: cell-based; settings: 5 μg/mL rhS100A9, 24 hours
Protocol: as §3

U937 cells [10] = test: ROS detection by flow cytometry in U937 cells; type: cell-based; settings: U937, 5 μg/mL rhS100A9, 24 hours, compared to untreated cells
Source text: ROS were detected using CM-H2DCFDA and Cell ROX® Deep Red Reagent according to manufacturer's protocol (Life Technologies).

U937 cells [11] = test: Comet assay (DNA damage) in U937 cells; type: cell-based; settings: U937, 5 μg/mL rhS100A9, 24 hours, compared to untreated cells
Protocol: Monocytic U937 cells were treated with 5 μg/mL rhS100A9 for 24 hr. DNA damage was measured by single cell gel electrophoresis using alkaline CometAssay® according to manufacturer's protocol (Trevigen Inc.).

U937 cells [12] = test: Nuclear β-catenin confocal microscopy in U937 cells; type: cell-based; settings: U937, 5 μg/mL rhS100A9, 24 hours, compared to untreated cells
normal BM-MNC [13] = test: Nuclear β-catenin confocal microscopy in normal BM-MNC; type: cell-based, human; settings: normal BM-MNC, 5 μg/mL rhS100A9, 24 hours, compared to controls
Protocol: as §3, with “Intensity values and Pearson's correlation coefficient were extracted from the segmented cells. For β-catenin image analysis, confocal images were imported into Definiens Tissue Studio v3.0, 64 Dual in .tif format. Cells were separated from background using the RGB thresholds. Nuclei were identified by setting thresholds in the DAPI channel. Typical cells averaged 60 microns. The red intensity (β-catenin) in the nucleus and cytoplasm was established by setting thresholds to low, medium and high in the red channel on a scale of 0-255 in the red channel.” left out

[14] = lenalidomide or lenalidomide + Epo
[15] = U937, increasing concentrations of rhS100A9, 24 hours

Nc1cccc2c1CN(C1CCC(=O)NC1=O)C2=O (stereo not drawn) [lenalidomide, Lenalidomide]
effect on IL-1β-directed suppression of Epo elaboration (HepG2 cells [1]; HepG2, 1 μM lenalidomide 30 minutes prior to IL-1β (10 ng/ml)): no effect
suppression of Epo production by S100A9 after lenalidomide pre-incubation (HepG2 cells [1]; HepG2, 1 μM lenalidomide 30 minutes prior to S100A9 (1 μg/ml)): 65%
suppression of Epo elaboration by TNFα after lenalidomide pre-incubation (HepG2 cells [1]; HepG2, 1 μM lenalidomide 30 minutes prior to TNFα (10 ng/ml)): 0%
IL10 gene message following IL-1β treatment (HepG2 cells [2]; HepG2, 1 μM lenalidomide pre-incubation): no modulatory effect
IL10 mRNA expression compared to S100A9 or TNFα treatment alone (HepG2 cells [2]; HepG2, 24 h, 1 μM lenalidomide 30 minutes prior to S100A9 (1 μg/ml) or TNFα (10 ng/ml)): significantly increased
NF-κB in nuclear fractions (NF-κB): significant reduction
S100A9 elaboration [3]: significant reduction
TNFα production induced by LPS (MDS PBMC): significantly reduced
erythroid response rate, high (above the median) serum TNFα (non-del(5q) MDS patients; [14]): 14%
erythroid response rate, low (below the median) serum TNFα (non-del(5q) MDS patients; [14]): 64%
erythroid response rate, high TNFα and low S100A9 (non-del(5q) MDS patients; lenalidomide treatment): 12%
erythroid response rate, low TNFα and high S100A9 concentrations (non-del(5q) MDS patients; lenalidomide treatment): 62%
response in patients with an interstitial deletion of Chromosome 5q (MDS patients; MDS patients with del 5q): high rate of response
patients without 5q deletions who benefit from therapy (MDS patients; MDS patients without 5q deletions): Approximately 25%

rhS100A9: Recombinant human S100A9, DAMP/alarmin protein, ligand for CD33 and TLR4, generated as previously described
activation of caspase-1 (U937 cells [4]; U937, 5 μg/mL rhS100A9 over time): time-dependent increase
a-caspase-1 MFI and percentage of a-caspase-1+ cells (U937 cells [4]; [15]): corresponding increase
fraction of pyroptotic cells (U937 cells [4]; [15]): concentration-dependent increase
levels of NLRP3 inflammasome complexes (U937 cells [5]): markedly increased
expression of pyroptosis-associated genes (normal BM-MNC [6]): significantly up-regulated
NLRP3 levels induced (normal BM-MNC [7]): 47.1 fold
a-caspase-1 levels induced (normal BM-MNC [7]): 2.5 fold
formation of NLRP3 inflammasomes (normal BM-MNC [7]): 2.9 fold
uptake of ethidium bromide (U937 cells [8]): rapid and substantial uptake
inflammasome complexes [9]: marked induction
MFI of NLRP3 ([9]; versus controls): significantly increased
MFI of a-caspase-1 ([9]; versus controls): significantly increased
increase in mean percentage of ROS-positive cells (U937 cells [10]): 2.9 fold
increase in DNA damage (U937 cells [11]): 4.1 fold
levels of nuclear (activated) β-catenin (U937 cells [12]): marked increases
levels of nuclear β-catenin (normal BM-MNC [13]): elevated levels
reduction in Epo elaboration (HepG2 cells [1]; HepG2, 1 μg/ml, 24 h exposure): 95%
Epo elaboration (HepG2 cells [1]; HepG2, 10 to 20 μg/ml, 24 h exposure): completely suppressed
suppression of Epo production by the inflammatory protein alone (HepG2 cells [1]; HepG2, vehicle control arm of lenalidomide experiment, S100A9 1 μg/ml or TNFα 10 ng/ml): 95%
